Test results published in patent US20220187281A1, “METHODS AND SYSTEMS FOR EVALUATION OF CELL SAMPLES” (priority 2019, published 2022).

Legend:
[1] = test system: human metastatic colorectal cancer (mCRC) biopsy core; assay: CTB viability of human mCRC biopsy core slices in long-term culture (therapy resistance); format: cell-based; settings: encorafenib 100 nM, binimetinib 100 nM; 16 days in culture (days 16 and 20)
Protocol: (§1) 5 μl of Cell-Titer Blue (CTB) (Promega) substrate was added to 1 ml of culture medium and incubated at 37° C. for 15 or 24 hr. 100 μl of media was removed from each sample culture and fluorescence was measured (Ex560/Em590) using Enspire® multimode plate reader (Perkin Elmer®). Background fluorescence of the culture medium was subtracted from each sample reading at each day Immediately following the CTB reading, media was changed and drugs were added to fresh media to continue culture. At desired time points, additional viability measurements were made to collect longitudinal data and conditioned media is collected and analyzed. After the final time point, tissues were fixed in formalin and embedded in paraffin or OCT for histological analyses or lysed in RIPA buffer or Trizol and conditioned media is frozen. To account for variability in tissue composition of each slice punch, viability readings of each sample was normalized to the respective CTB reading immediately after slicing (0 days ex vivo: 1 dex CTB reading) and relative fold changes in CTB readings at each time point were analyzed.
(§2) Samples were precision cut into […] thick slices using a Vibratome VT1200S (Leica Microsystems). […]

[2] = test system: BR0851 TNBC PDX tumor; assay: Cell-Titer Blue viability of BR0851 TNBC PDX tumor slices; format: cell-based, human; settings: for sensitivity by viability assay readings: 12 days ex vivo compared to 0 div; for response profile of tumor slices: by 13 div, long-term exposure
[3] = test system: BR1126 TNBC PDX tumor; assay: Cell-Titer Blue viability of BR1126 TNBC PDX tumor slices; format: cell-based, human
[4] = test system: BR0851 TNBC PDX slices; assay: Immunohistochemical analysis of BR0851 TNBC PDX slices; format: cell-based, human; settings: BR0851 slices at 13 div; for overall cell numbers (immunohistochemical analysis): compared with vehicle
[5] = test system: patient tumor tissue samples from two locations; assay: Viability of samples from two locations of the same patient tumor (Example 6); format: cell-based; settings: 0, 3, 5, 9, and 12 days in vitro
Protocol: Tumor tissue samples from two locations of the same patient tumor are obtained and cultured as described in Example 1. Each sample is treated with Cisplatin (Cis), Doxorubicin (Dox) or Paclitaxel (Taxol). Viability measurements are obtained at 0, 3, 5, 9, and 12 days in vitro.

[6] = test system: BR1126 TNBC PDX; settings: JAX PDX Resource data; cited from earlier work
[7] = test system: BR0851 TNBC PDX; settings: JAX PDX Resource data; cited from earlier work
[8] = test system: human metastatic colorectal cancer (mCRC) biopsy cores; assay: CTB viability of mCRC biopsy core slices from two patients (immunotherapy response); format: cell-based; settings: nivolumab 10 μg/mL, encorafenib 100 nM, cetuximab 10 μg/mL; early and late time points
Protocol: as §1, §2

[9] = test system: colorectal cancer PDX model (mCRC); assay: Cell-Titer Blue viability of colorectal cancer PDX model (FIG. 2E); format: cell-based, human; settings: oxaliplatin 0.1, 1, 10 μM; 5-FU 1, 10, 100 μM; days 0, 4, 8 in vitro
[10] = test system: CN0458 colon tumor slices; assay: Cell-Titer Blue viability of CN0458 colon PDX tumor slices; format: cell-based, human; settings: 100 uM
[11] = test system: CNSTG colon tumor slices; assay: Cell-Titer Blue viability of CNSTG colon PDX tumor slices; format: cell-based, human; settings: 100 uM
[12] = compared with vehicle or Cisplatin treated tissues

COC(=O)N[C@@H](C)CNc1nccc(-c2cn(C(C)C)nc2-c2cc(Cl)cc(NS(C)(=O)=O)c2F)n1 [encorafenib]
therapy resistance in long-term culture (viability) [1]: emergence of encorafenib resistance

N.N.[Cl][Pt][Cl] [Cisplatin]
sensitivity by viability assay readings [2]: insensitive
response profile of tumor slices [2]: progressive disease profile
ex vivo treatment response [3]: partial response
sensitivity by viability assay readings [3]: sensitive
overall cell numbers (immunohistochemical analysis) [4]: similar
difference between viability measurements of the two tumor locations [5]: significant difference
in vivo treatment response [6]: partial response
in vivo treatment response [7]: no response

COc1cccc2c1C(=O)c1c(O)c3c(c(O)c1C2=O)C[C@@](O)(C(=O)CO)C[C@@H]3O[C@H]1C[C@H](N)[C@H](O)[C@H](C)O1 [Doxorubicin]
sensitivity by viability assay readings [2]: sensitive
response profile of tumor slices [2]: complete response
overall cell numbers (immunohistochemical analysis) [4]: overall reduction in cell numbers
necrotic regions [4, 12]: increase
pyknotic and abnormal nuclei [4, 12]: increase
difference between viability measurements of the two tumor locations [5]: significant difference

nivolumab
sensitivity of the two mCRC patient samples (viability) [8]: differential sensitivity

Cn1cnc2c(F)c(Nc3ccc(Br)cc3F)c(C(=O)NOCCO)cc21 [binimetinib]
therapy resistance in long-term culture (viability) [1]: suppressed

CC(=O)O[C@H]1C(=O)[C@@]2(C)[C@H]([C@H](OC(=O)c3ccccc3)[C@]3(O)C[C@H](OC(=O)[C@H](O)[C@@H](NC(=O)c4ccccc4)c4ccccc4)C(C)=C1C3(C)C)[C@]1(OC(C)=O)CO[C@@H]1C[C@@H]2O [Paclitaxel]
sensitivity by viability assay readings [3]: sensitive
difference between viability measurements of the two tumor locations [5]: significant difference

O=c1[nH]cc(F)c(=O)[nH]1 [5-FU, 5-fluorouracil]
cell viability response [9]: no reduction in cell viability
suppression of viability of CN0458 slices compared with CNSTG slices [10]: more effective

O=C1[O][Pt]2([NH][C@@H]3CCCC[C@H]3[NH]2)[O]C1=O [oxaliplatin]
cell viability response [9]: dose and time-dependent response
suppression of viability of CNSTG slices compared with CN0458 slices [11]: more effective
